ChEMBL document CHEMBL3885881, “DrugMatrix”

Organism: Rattus norvegicus
Assay: DrugMatrix - Regimen: Daily Repeat
Assay type: toxicity, organism-based, Sprague-Dawley
Set-up: regimen Daily Repeat, gender Male, age 6-8 weeks
Conditions: in vivo, ip, route intraperitoneal, vehicle 100 % SALINE; for ABSOLUTE BASOPHIL / ABSOLUTE EOSINOPHIL / ABSOLUTE LYMPHOCYTE / ABSOLUTE MONOCYTE / ABSOLUTE SEGMENTED NEUTROPHIL / BASOPHIL / EOSINOPHIL / ERYTHROCYTE COUNT / HEMATOCRIT / HEMOGLOBIN / LEUKOCYTE COUNT / LYMPHOCYTE / MEAN CORPUSCULAR HEMOGLOBIN / MEAN CORPUSCULAR HEMOGLOBIN CONCENTRATION / MEAN CORPUSCULAR VOLUME / MONOCYTE / NEUTROPHIL / PLATELET COUNT: tissue Blood
[1] = 0 mg/kg, 120 h, dose level Control, time 5 day
[2] = 0 mg/kg, 120 h, tissue Plasma, dose level Control, time 5 day
[3] = 0 mg/kg, […], dose level Control, time 14 day
[4] = 0 mg/kg, […], dose level Control, time 28 day
[5] = 0 mg/kg, […], tissue Plasma, dose level Control, time 14 day
[6] = 0 mg/kg, […], tissue Plasma, dose level Control, time 28 day
[7] = 2 mg/kg, 120 h, dose level High, time 5 day
[8] = 2 mg/kg, 120 h, tissue Plasma, dose level High, time 5 day
[9] = 2 mg/kg, […], dose level High, time 14 day
[10] = 2 mg/kg, […], dose level High, time 28 day

Work on CADMIUM DICHLORIDE yielded an ABSOLUTE BASOPHIL [1] of 32 cells/µL, an ABSOLUTE EOSINOPHIL [1] of 110 cells/µL and an ABSOLUTE LYMPHOCYTE [1] of 6630 cells/µL. For the same substance, the ABSOLUTE MONOCYTE [1] was 140 cells/µL, the ABSOLUTE SEGMENTED NEUTROPHIL [1] was 1170 cells/µL and the BASOPHIL [1] was 0.38%. For the same substance, the EOSINOPHIL [1] was 1.28%, the “ERYTHROCYTE COUNT” value [1] was 7.45 x10E6/uL and the HEMATOCRIT [1] was 45.74%. For the same substance, the HEMOGLOBIN [1] was 14.72 G/DL, the “LEUKOCYTE COUNT” value [1] was 8.11 x10E3/uL and the LYMPHOCYTE [1] was 81.3%. The “MEAN CORPUSCULAR HEMOGLOBIN” value [1] was 19.76 pg, the “MEAN CORPUSCULAR HEMOGLOBIN CONCENTRATION” value [1] was 32.16 G/DL and the “MEAN CORPUSCULAR VOLUME” value [1] was 61.38 fL. For the same substance, the MONOCYTE [1] was 1.76%, the NEUTROPHIL [1] was 14.9% and the “PLATELET COUNT” value [1] was 1322.4 x10E3/uL. The “ALANINE AMINOTRANSFERASE” value [2] was 25.8 u/L, the ALBUMIN [2] was 3.64 G/DL and the “ASPARTATE AMINOTRANSFERASE” value [2] was 81.4 u/L. The “BLOOD UREA NITROGEN” value [2] was 14.4 mg/dL, the CHOLESTEROL [2] was 69.2 mg/dL and the “CREATINE PHOSPHOKINASE” value [2] was 303.2 u/L. The CREATININE [2] was 0.56 mg/dL, the GLUCOSE [2] was 125.4 mg/dL and the “LACTATE DEHYDROGENASE” value [2] was 105.4 u/L. For the same substance, the LIPASE [2] was 22.4 u/L, the POTASSIUM [2] was 5.52 MEQ/L and the SODIUM [2] was 147 MEQ/L. For the same substance, the “TOTAL BILIRUBIN” value [2] was 0.2 mg/dL, the “TOTAL PROTEIN” value [2] was 6.1 G/DL and the “URIC ACID” value [2] was 1.06 mg/dL. It also gave an ABSOLUTE BASOPHIL [3] of 130 cells/µL, an ABSOLUTE EOSINOPHIL [3] of 140 cells/µL and an ABSOLUTE LYMPHOCYTE [3] of 13500 cells/µL. For the same substance, the ABSOLUTE MONOCYTE [3] was 400 cells/µL, the ABSOLUTE SEGMENTED NEUTROPHIL [3] was 2330 cells/µL and the BASOPHIL [3] was 0.72%. The EOSINOPHIL [3] was 0.86%, the “ERYTHROCYTE COUNT” value [3] was 7.74 x10E6/uL and the HEMATOCRIT [3] was 45.98%. For the same substance, the “LEUKOCYTE COUNT” value [3] was 16.61 x10E3/uL, the LYMPHOCYTE [3] was 81.34% and the “MEAN CORPUSCULAR HEMOGLOBIN” value [3] was 18 pg. The “MEAN CORPUSCULAR HEMOGLOBIN CONCENTRATION” value [3] was 30.22 G/DL, the “MEAN CORPUSCULAR VOLUME” value [3] was 59.4 fL and the MONOCYTE [3] was 2.46%. The NEUTROPHIL [3] was 14.14%, the “PLATELET COUNT” value [3] was 1445.5 x10E3/uL and the ABSOLUTE BASOPHIL [4] was 91 cells/µL. For the same substance, the ABSOLUTE EOSINOPHIL [4] was 110 cells/µL, the ABSOLUTE LYMPHOCYTE [4] was 9910 cells/µL and the ABSOLUTE MONOCYTE [4] was 210 cells/µL. It also gave an ABSOLUTE SEGMENTED NEUTROPHIL [4] of 1560 cells/µL, a BASOPHIL [4] of 0.77% and an EOSINOPHIL [4] of 0.92%. For the same substance, the “ERYTHROCYTE COUNT” value [4] was 8.21 x10E6/uL, the HEMATOCRIT [4] was 47.53% and the HEMOGLOBIN [4] was 15.65 G/DL. For the same substance, the “LEUKOCYTE COUNT” value [4] was 11.91 x10E3/uL, the LYMPHOCYTE [4] was 83.34% and the “MEAN CORPUSCULAR HEMOGLOBIN” value [4] was 19.07 pg. The “MEAN CORPUSCULAR HEMOGLOBIN CONCENTRATION” value [4] was 32.93 G/DL, the “MEAN CORPUSCULAR VOLUME” value [4] was 57.9 fL and the MONOCYTE [4] was 1.68%. For the same substance, the NEUTROPHIL [4] was 12.97%, the “PLATELET COUNT” value [4] was 1323.8 x10E3/uL and the “ALANINE AMINOTRANSFERASE” value [5] was 31.6 u/L. The ALBUMIN [5] was 3.66 G/DL, the “ALKALINE PHOSPHATASE” value [5] was 228.6 u/L and the “ASPARTATE AMINOTRANSFERASE” value [5] was 79.6 u/L. For the same substance, the “BLOOD UREA NITROGEN” value [5] was 11.2 mg/dL, the CHLORIDE [5] was 107 MEQ/L and the CHOLESTEROL [5] was 57 mg/dL. The CREATININE [5] was 0.5 mg/dL, the GLUCOSE [5] was 124.4 mg/dL and the “LACTATE DEHYDROGENASE” value [5] was 106.4 u/L. For the same substance, the LIPASE [5] was 24.4 u/L, the PHOSPHORUS [5] was 10.52 mg/dL and the POTASSIUM [5] was 6.34 MEQ/L. The SODIUM [5] was 149.2 MEQ/L, the “TOTAL BILIRUBIN” value [5] was 0.2 mg/dL and the “TOTAL PROTEIN” value [5] was 6.48 G/DL. The “URIC ACID” value [5] was 0.94 mg/dL, the “ALANINE AMINOTRANSFERASE” value [6] was 30 u/L and the ALBUMIN [6] was 3.71 G/DL. For the same substance, the “ALKALINE PHOSPHATASE” value [6] was 186.8 u/L, the “ASPARTATE AMINOTRANSFERASE” value [6] was 78.2 u/L and the “BLOOD UREA NITROGEN” value [6] was 14.2 mg/dL. The CHOLESTEROL [6] was 44.9 mg/dL, the “CREATINE PHOSPHOKINASE” value [6] was 334.3 u/L and the CREATININE [6] was 0.6 mg/dL. The GLUCOSE [6] was 147.2 mg/dL, the “LACTATE DEHYDROGENASE” value [6] was 123.1 u/L and the LIPASE [6] was 9.6 u/L. For the same substance, the PHOSPHORUS [6] was 10.01 mg/dL, the POTASSIUM [6] was 6.57 MEQ/L and the SODIUM [6] was 149.5 MEQ/L. For the same substance, the “TOTAL BILIRUBIN” value [6] was 0.21 mg/dL, the “TOTAL PROTEIN” value [6] was 6.66 G/DL and the “URIC ACID” value [6] was 1.26 mg/dL. The ABSOLUTE BASOPHIL [7] was 82 cells/µL, the ABSOLUTE EOSINOPHIL [7] was 170 cells/µL and the ABSOLUTE LYMPHOCYTE [7] was 6790 cells/µL. The ABSOLUTE MONOCYTE [7] was 750 cells/µL, the “ABSOLUTE SEGMENTED NEUTROPHIL” value [7] was 6.49 CELLS/uL and the BASOPHIL [7] was 0.52%. The EOSINOPHIL [7] was 1.36%, the “ERYTHROCYTE COUNT” value [7] was 7.45 x10E6/uL and the HEMATOCRIT [7] was 43.86%. For the same substance, the HEMOGLOBIN [7] was 14.46 G/DL, the “LEUKOCYTE COUNT” value [7] was 14.43 x10E3/uL and the LYMPHOCYTE [7] was 52.2%. The “MEAN CORPUSCULAR HEMOGLOBIN” value [7] was 19.4 pg, the “MEAN CORPUSCULAR HEMOGLOBIN CONCENTRATION” value [7] was 32.92 G/DL and the “MEAN CORPUSCULAR VOLUME” value [7] was 59.02 fL. For the same substance, the MONOCYTE [7] was 5.12%, the NEUTROPHIL [7] was 39.98% and the “PLATELET COUNT” value [7] was 1991.4 x10E3/uL. The “ALANINE AMINOTRANSFERASE” value [8] was 32 u/L, the ALBUMIN [8] was 3.14 G/DL and the “ALKALINE PHOSPHATASE” value [8] was 100.2 u/L. The “ASPARTATE AMINOTRANSFERASE” value [8] was 134 u/L, the “BLOOD UREA NITROGEN” value [8] was 16.8 mg/dL and the CHOLESTEROL [8] was 54.8 mg/dL. The “CREATINE PHOSPHOKINASE” value [8] was 243.4 u/L, the CREATININE [8] was 0.44 mg/dL and the GLUCOSE [8] was 120.4 mg/dL. The “LACTATE DEHYDROGENASE” value [8] was 161.2 u/L, the LIPASE [8] was 76.6 u/L and the PHOSPHORUS [8] was 11.2 mg/dL. For the same substance, the POTASSIUM [8] was 6.38 MEQ/L, the SODIUM [8] was 146 MEQ/L and the “TOTAL BILIRUBIN” value [8] was 0.2 mg/dL. For the same substance, the “TOTAL PROTEIN” value [8] was 5.32 G/DL, the “URIC ACID” value [8] was 1.7 mg/dL and the ABSOLUTE BASOPHIL [9] was 180 cells/µL. The ABSOLUTE EOSINOPHIL [9] was 86 cells/µL, the ABSOLUTE LYMPHOCYTE [9] was 8270 cells/µL and the ABSOLUTE MONOCYTE [9] was 890 cells/µL. The “ABSOLUTE SEGMENTED NEUTROPHIL” value [9] was 6.16 CELLS/uL, the BASOPHIL [9] was 1.22% and the EOSINOPHIL [9] was 0.6%. For the same substance, the “ERYTHROCYTE COUNT” value [9] was 7.03 x10E6/uL, the HEMATOCRIT [9] was 40.98% and the HEMOGLOBIN [9] was 13.48 G/DL. The “LEUKOCYTE COUNT” value [9] was 15.72 x10E3/uL, the LYMPHOCYTE [9] was 52.14% and the “MEAN CORPUSCULAR HEMOGLOBIN” value [9] was 19.2 pg. For the same substance, the “MEAN CORPUSCULAR HEMOGLOBIN CONCENTRATION” value [9] was 32.92 G/DL, the “MEAN CORPUSCULAR VOLUME” value [9] was 58.34 fL and the MONOCYTE [9] was 5.4%. For the same substance, the NEUTROPHIL [9] was 39.7%, the “PLATELET COUNT” value [9] was 2275.2 x10E3/uL and the ABSOLUTE BASOPHIL [10] was 270 cells/µL. It also gave an ABSOLUTE EOSINOPHIL [10] of 150 cells/µL, an ABSOLUTE LYMPHOCYTE [10] of 12500 cells/µL and an ABSOLUTE MONOCYTE [10] of 620 cells/µL. For the same substance, the ABSOLUTE SEGMENTED NEUTROPHIL [10] was 4220 cells/µL, the BASOPHIL [10] was 1.34% and the EOSINOPHIL [10] was 0.93%. The “ERYTHROCYTE COUNT” value [10] was 7.42 x10E6/uL, the HEMATOCRIT [10] was 44.63% and the “LEUKOCYTE COUNT” value [10] was 17.89 x10E3/uL. The LYMPHOCYTE [10] was 68.87%, the “MEAN CORPUSCULAR HEMOGLOBIN” value [10] was 18.83 pg and the “MEAN CORPUSCULAR HEMOGLOBIN CONCENTRATION” value [10] was 31.21 G/DL. For the same substance, the MONOCYTE [10] was 3.41%.
